The experiment concerns amphetamine-induced rats. As to conditions: Study 1, 2.5 mg/kg, compared to vehicle-amphetamine group. How it is done: Locomotor activity of the rats was tested in open field arena.

Take `COc1cc2c(cc1OC)[C@@H]1C[C@H](O)[C@@H](CC(C)C)CN1CC2` [(−)-α-DHTBZ, (2S, 3S, 11bS)-3-isobutyl-9,10-dimethoxy-1,3,4,6,7,11b-hexahydro-2H-pyrido[2,1,a]isoquinolin-2-ol]: the stereotypic behaviour entry is recorded as “did not lead to lower locomotor activity or reduced stereotypic behaviour”. The “locomotor activity (distance travelled)” value (listed as (−)-α-isomer) is listed as “very little, if any, reduction”.

These data come from patent US11844786B2 (ADEPTIO PHARMACEUTICALS LIMITED, priority 2017, dated 2023).
